According to ChEMBL document CHEMBL3112568, “Synthesis, antifungal activities and molecular docking studies of novel 2-(2,4-difluorophenyl)-2-hydroxy-3-(1H-1,2,4-triazol-1-yl)propyl dithiocarbamates” (2014):
Converted amounts (≈) assume the structure as drawn.

How the values were obtained:
Assay type in all cases: functional
Candida parapsilosis = assay: Antifungal activity against Candida parapsilosis by micro-broth dilution method; settings: Lodderomyces parapsilosis
Aspergillus fumigatus = assay: Antifungal activity against Aspergillus fumigatus by micro-broth dilution method
Candida albicans [1] = assay: Antifungal activity against Candida albicans SC5314 after 24 hrs by micro-broth dilution method; settings: SC5314, 24 h
Cryptococcus neoformans = assay: Antifungal activity against Cryptococcus neoformans after 72 hrs by micro-broth dilution method
Nakaseomyces glabratus = assay: Antifungal activity against Candida glabrata by micro-broth dilution method
Candida albicans [2] = assay: Antifungal activity against Candida albicans Y0109 after 24 hrs by micro-broth dilution method; settings: Y0109, 24 h
Nannizzia gypsea = assay: Antifungal activity against Microsporum gypseum by micro-broth dilution method
Trichophyton rubrum = assay: Antifungal activity against Trichophyton rubrum by micro-broth dilution method

Row | MIC80 (Candida parapsilosis) [µg/mL] | MIC80 (Aspergillus fumigatus) [µg/mL] | MIC80 (Candida albicans [1]) [µg/mL] | MIC80 (Cryptococcus neoformans) [µg/mL] | MIC80 (Nakaseomyces glabratus) [µg/mL] | MIC80 (Candida albicans [2]) [µg/mL] | MIC80 (Nannizzia gypsea) [µg/mL] | MIC80 (Trichophyton rubrum) [µg/mL] | SMILES
1 | 0.5 (≈ 0.98 µM) | 8 (≈ 15.7 µM) | ≤ 0.125 | ≤ 0.125 | 0.5 (≈ 0.98 µM) | ≤ 0.125 | 2 (≈ 3.92 µM) | 1 (≈ 1.96 µM) | OC(CSC(=S)N1CCN(c2ccccc2Cl)CC1)(Cn1cncn1)c1ccc(F)cc1F (racemic)
2 | 1 (≈ 1.84 µM) | > 64 | 0.5 (≈ 0.918 µM) | 0.5 (≈ 0.918 µM) | 0.5 (≈ 0.918 µM) | ≤ 0.125 | 16 (≈ 29.4 µM) | 0.5 (≈ 0.918 µM) | OC(CSC(=S)N1CCN(c2cccc(Cl)c2Cl)CC1)(Cn1cncn1)c1ccc(F)cc1F (racemic)
3 | 0.5 (≈ 0.92 µM) | 8 (≈ 14.7 µM) | ≤ 0.125 | 0.25 (≈ 0.46 µM) | 0.25 (≈ 0.46 µM) | ≤ 0.125 | 2 (≈ 3.68 µM) | 1 (≈ 1.84 µM) | OC(CSC(=S)N1CCN(c2cccc(C(F)(F)F)c2)CC1)(Cn1cncn1)c1ccc(F)cc1F (racemic)
4 | 0.5 (≈ 0.98 µM) | 16 (≈ 31.4 µM) | ≤ 0.125 | ≤ 0.125 | 0.25 (≈ 0.49 µM) | ≤ 0.125 | 4 (≈ 7.84 µM) | 1 (≈ 1.96 µM) | OC(CSC(=S)N1CCN(c2ccc(Cl)cc2)CC1)(Cn1cncn1)c1ccc(F)cc1F (racemic)
5 | 0.25 (≈ 0.605 µM) | 8 (≈ 19.3 µM) | ≤ 0.125 | 0.25 (≈ 0.605 µM) | ≤ 0.125 | ≤ 0.125 | 4 (≈ 9.67 µM) | 1 (≈ 2.42 µM) | CN1CCN(C(=S)SCC(O)(Cn2cncn2)c2ccc(F)cc2F)CC1 (racemic)
6 | 1 (≈ 1.99 µM) | > 64 | 0.5 (≈ 0.993 µM) | 0.5 (≈ 0.993 µM) | 0.5 (≈ 0.993 µM) | 0.5 (≈ 0.993 µM) | > 64 | 1 (≈ 1.99 µM) | Cc1cccc(N2CCN(C(=S)SCC(O)(Cn3cncn3)c3ccc(F)cc3F)CC2)c1C (racemic)

The remaining lines, values behind:

Row | SMILES | MIC80 (Candida parapsilosis) [µg/mL] | MIC80 (Aspergillus fumigatus) [µg/mL] | MIC80 (Candida albicans [1]) [µg/mL] | MIC80 (Cryptococcus neoformans) [µg/mL] | MIC80 (Nakaseomyces glabratus) [µg/mL] | MIC80 (Candida albicans [2]) [µg/mL] | MIC80 (Nannizzia gypsea) [µg/mL] | MIC80 (Trichophyton rubrum) [µg/mL]
7 | OC(CSC(=S)NC1CCCCC1)(Cn1cncn1)c1ccc(F)cc1F (racemic) | 64 (≈ 155 µM) | > 64 | 0.25 (≈ 0.606 µM) | 16 (≈ 38.8 µM) | 4 (≈ 9.7 µM) | 0.25 (≈ 0.606 µM) | > 64 | 64 (≈ 155 µM)
8 | CCCNC(=S)SCC(O)(Cn1cncn1)c1ccc(F)cc1F (racemic) | > 64 | > 64 | 0.25 (≈ 0.671 µM) | 64 (≈ 172 µM) | 2 (≈ 5.37 µM) | 0.25 (≈ 0.671 µM) | > 64 | 32 (≈ 85.9 µM)
9 | CCN(CC)C(=S)SCC(O)(Cn1cncn1)c1ccc(F)cc1F (racemic) | 0.5 (≈ 1.29 µM) | 8 (≈ 20.7 µM) | ≤ 0.125 | 0.25 (≈ 0.647 µM) | ≤ 0.125 | ≤ 0.125 | 4 (≈ 10.3 µM) | 8 (≈ 20.7 µM)
10 | OCCN(CCO)C(=S)SCC(O)(Cn1cncn1)c1ccc(F)cc1F (racemic) | > 64 | > 64 | 8 (≈ 19.1 µM) | 64 (≈ 153 µM) | 0.25 (≈ 0.597 µM) | 8 (≈ 19.1 µM) | 1 (≈ 2.39 µM) | 1 (≈ 2.39 µM)
11 | CC(=O)N1CCN(c2ccc(OCC3COC(Cn4ccnc4)(c4ccc(Cl)cc4Cl)O3)cc2)CC1 (stereo unspecified) [KETOCONAZOLE] | 0.5 (≈ 0.941 µM) | 4 (≈ 7.53 µM) | ≤ 0.125 | 0.25 (≈ 0.47 µM) | 0.5 (≈ 0.941 µM) | 0.25 (≈ 0.47 µM) | 1 (≈ 1.88 µM) | 0.125 (≈ 0.235 µM)
12 | CCCCNC(=S)SCC(O)(Cn1cncn1)c1ccc(F)cc1F (racemic) | 0.25 (≈ 0.647 µM) | > 64 | 0.5 (≈ 1.29 µM) | 64 (≈ 166 µM) | 16 (≈ 41.4 µM) | 0.5 (≈ 1.29 µM) | > 64 | > 64
